Measurements: US12649750B2, “Macrocyclic compounds, compositions, and methods of using thereof” (Sionna Therapeutics Inc., priority 2022, dated 2026)

Key:
NBD1 = target: T1, NBD1 (Homo sapiens, UniProt P13569); assay: Aggregation analysis using differential static light scattering (DSLS), thermal stability of NBD1 (ΔTagg); type: binding; settings: ΔTagg versus DMSO control, NBD1 0.2 mg/ml
T1 construct: Purified recombinant NBD1 was produced using previously described methods; made in house
Procedure, shortened: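 Stabilisation is measured as the shift in aggregation onset of recombinant NBD1 (0.2 mg/ml, 2 mM ATP, 5 mM MgCl2, pH7.6) exposed to compound. Images are taken every 0.5° C. while heating at 1° C. per minute, and the inflection-point Tagg is corrected by the DMSO mean.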

CFTR = target: T2, CFTR (Homo sapiens, UniProt P13569, DEL508-508); assay: TECC24 AUC fold over DMSO @10 μM, CFTR-mediated transepithelial chloride transport in CF-HBE cells; type: cell-based; settings: test agent AUC divided by DMSO vehicle AUC, primary CF-HBE cells, ΔF508 homozygous donor, 48 hours incubation
T2 construct: Primary human bronchial epithelial cells from a ΔF508 homozygous CF donor; host or cells: primary human bronchial epithelial cells (CF-HBE), ΔF508 homozygous donor
Procedure, shortened: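 Value is ratio of test-agent to DMSO AUC of equivalent transepithelial Cl− current, integrated from forskolin (10 μM) stimulation to CFTR inhibitor-172 (20 μM) block, with benzamil 10 μM present. CF-HBE (ΔF508/ΔF508) cultures had 48 h compound exposure at 10 μM, 36.5° C before recording.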

T2 sequence (P13569 with tags, fused parts or gaps DEL508-508): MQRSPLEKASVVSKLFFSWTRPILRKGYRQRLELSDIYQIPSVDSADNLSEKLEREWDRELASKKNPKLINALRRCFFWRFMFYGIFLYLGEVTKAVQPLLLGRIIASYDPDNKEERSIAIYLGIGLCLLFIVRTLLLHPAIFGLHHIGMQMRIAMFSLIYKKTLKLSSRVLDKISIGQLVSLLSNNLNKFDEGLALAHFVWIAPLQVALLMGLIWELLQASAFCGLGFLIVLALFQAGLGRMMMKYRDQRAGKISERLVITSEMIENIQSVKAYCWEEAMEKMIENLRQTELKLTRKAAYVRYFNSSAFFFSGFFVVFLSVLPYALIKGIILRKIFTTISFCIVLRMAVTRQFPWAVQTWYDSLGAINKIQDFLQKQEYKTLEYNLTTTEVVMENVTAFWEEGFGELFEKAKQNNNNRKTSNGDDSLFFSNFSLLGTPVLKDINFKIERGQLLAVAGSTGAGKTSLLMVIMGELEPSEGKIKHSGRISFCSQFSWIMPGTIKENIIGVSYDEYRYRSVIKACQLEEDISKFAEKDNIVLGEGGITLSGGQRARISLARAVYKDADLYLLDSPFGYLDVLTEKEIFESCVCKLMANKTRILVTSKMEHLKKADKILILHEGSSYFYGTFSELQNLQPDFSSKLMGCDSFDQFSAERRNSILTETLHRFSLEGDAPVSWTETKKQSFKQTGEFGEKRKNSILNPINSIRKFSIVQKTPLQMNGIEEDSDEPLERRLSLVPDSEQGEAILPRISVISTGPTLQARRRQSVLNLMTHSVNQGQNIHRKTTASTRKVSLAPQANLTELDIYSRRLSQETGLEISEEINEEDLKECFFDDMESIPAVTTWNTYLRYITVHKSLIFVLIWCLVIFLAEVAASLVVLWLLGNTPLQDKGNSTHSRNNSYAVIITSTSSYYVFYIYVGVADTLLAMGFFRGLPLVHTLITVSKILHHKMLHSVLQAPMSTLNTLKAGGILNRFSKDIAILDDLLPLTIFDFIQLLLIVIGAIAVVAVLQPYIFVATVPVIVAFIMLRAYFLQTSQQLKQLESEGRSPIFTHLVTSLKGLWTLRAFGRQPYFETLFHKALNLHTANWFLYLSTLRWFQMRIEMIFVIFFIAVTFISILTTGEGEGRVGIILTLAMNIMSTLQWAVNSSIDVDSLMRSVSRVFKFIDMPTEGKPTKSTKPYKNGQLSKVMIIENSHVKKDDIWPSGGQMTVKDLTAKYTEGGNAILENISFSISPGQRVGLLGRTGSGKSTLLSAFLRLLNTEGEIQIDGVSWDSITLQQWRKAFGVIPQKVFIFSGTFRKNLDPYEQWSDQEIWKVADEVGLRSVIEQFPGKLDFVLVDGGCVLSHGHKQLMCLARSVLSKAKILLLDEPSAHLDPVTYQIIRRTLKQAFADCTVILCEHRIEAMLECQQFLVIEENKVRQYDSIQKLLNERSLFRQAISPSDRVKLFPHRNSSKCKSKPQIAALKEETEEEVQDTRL
T1 sequence (P13569 423-646 limits assumed): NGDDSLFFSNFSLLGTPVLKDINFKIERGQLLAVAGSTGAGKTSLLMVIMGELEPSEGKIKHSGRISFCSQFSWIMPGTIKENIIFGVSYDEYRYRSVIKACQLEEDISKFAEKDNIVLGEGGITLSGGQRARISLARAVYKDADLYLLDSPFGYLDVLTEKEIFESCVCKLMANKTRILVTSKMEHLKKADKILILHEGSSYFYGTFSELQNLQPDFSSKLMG

Compound | DSLS 3D (100 μM ΔT) (NBD1) | TECC (AUC, 10 μM) (CFTR)
Cn1nc2nc1-c1cc(ccc1F)Oc1c(F)cc3[nH]ccc3c1CCS(=O)(=O)CC(C)(C)OCCC2(C)c1cccc(CCC(=O)O)c1 (single isomer, unassigned) [Compound 73B, 3-[3-(22,28-difluoro-3,6,10,10-tetramethyl-12,12-dioxo-9,24-dioxa-12lambda6-thia-3,4,19,30-tetrazapentacyclo-[23.3.1.12,5.015,23.016,20]triaconta-1(29),2(30),4,15,17,20,22,25,27-nonaen-6-yl)phenyl]-propanoic Acid] | A (an ΔTagg value less than or equal to 5 °C is marked “A”) | B (a value between 12-20 is marked “B”)
CC(CC(=O)O)c1cccc(C2(C)CCCC(C)(C)CS(=O)(=O)CCc3c(c(F)cc4[nH]ccc34)Oc3ccc(F)c(c3)-c3nc2nn3C)c1 (single isomer, unassigned) [Compound 79A, 3-[3-(22,28-difluoro-3,6,10,10-tetramethyl-12,12-dioxo-24-oxa-12lambda6-thia-3,4,19,30-tetrazapentacyclo[23.3.1.12,5.015,23.016,20]triaconta-1(29),2(30),4,15,17,20,22,25,27-nonaen-6-yl)phenyl]butanoic Acid] | C (a value greater than 10 °C and less than or equal to 25 °C is marked “C”) | C (a value between 20 and 80 is marked “C”)
CC(CC(=O)O)c1cccc(C2(C)CCCC(C)(C)CS(=O)(=O)CCc3c(c(F)cc4[nH]ccc34)Oc3ccc(F)c(c3)-c3nc2nn3C)c1 (single isomer, unassigned) [Compound 79B, 3-[3-(22,28-difluoro-3,6,10,10-tetramethyl-12,12-dioxo-24-oxa-12lambda6-thia-3,4,19,30-tetrazapentacyclo[23.3.1.12,5.015,23.016,20]triaconta-1(29),2(30),4,15,17,20,22,25,27-nonaen-6-yl)phenyl]butanoic Acid] | B (a value above 5 °C and less than or equal to 10 °C is marked “B”) | A (a TECC value less than 12 is marked “A”)
O=C(O)CCc1cccc(C2NC(=O)CCCS(=O)(=O)CCc3c(c(F)cc4[nH]ccc34)Oc3ccc(F)c(c3)-c3ncc2[nH]3)c1 (single isomer, unassigned) [Compound 80, 3-[3-[22,28-difluoro-8,12,12-trioxo-24-oxa-12lambda6-thia-3,7,19,30-tetrazapentacyclo[23.3.1.12,5.015,23.016,20]triaconta-1(29),2,4,15,17,20,22,25,27-nonaen-6-yl]phenyl]propanoic acid] | B (a value above 5 °C and less than or equal to 10 °C is marked “B”) | A (a TECC value less than 12 is marked “A”)
O=C1CCCS(=O)(=O)CCc2c(c(F)cc3[nH]ccc23)Oc2ccc(F)c(c2)-c2ncc([nH]2)C(c2ccccc2)N1 (single isomer, unassigned) [Compound 81, 22,28-difluoro-12,12-dioxo-6-phenyl-24-oxa-12lambda6-thia-3,7,19,30 tetrazapentacyclo[23.3.1.12,5.015,23.016,20]triaconta-1(29),2,4,15,17,20,22,25,27-nonaen-8-one] | A (an ΔTagg value less than or equal to 5 °C is marked “A”) | A (a TECC value less than 12 is marked “A”)
O=C(O)CCc1cccc(C2NC(=O)CCCS(=O)(=O)CCc3c(c(F)cc4[nH]ccc34)Oc3ccc(F)c(c3)-c3ncc2[nH]3)c1 (single isomer, unassigned) [Compound 82, 3-[3-[22,28-difluoro-8,12,12-trioxo-24-oxa-12lambda6-thia-3,7,19,30-tetrazapentacyclo [23.3.1.12,5.015,23.016,20]-triaconta-1(29),2,4,15,17,20,22,25,27-nonaen-6-yl]phenyl]propanoic acid] | C (a value greater than 10 °C and less than or equal to 25 °C is marked “C”) | A (a TECC value less than 12 is marked “A”)
O=C1CCCS(=O)(=O)CCc2c(c(F)cc3[nH]ccc23)Oc2ccc(F)c(c2)-c2ncc([nH]2)C(c2ccccc2)N1 (single isomer, unassigned) [Compound 83, 22,28-difluoro-12,12-dioxo-6-phenyl-24-oxa-12lambda6-thia-3,7,19,30-tetrazapentacyclo [23.3.1.12,5.015,23.016,20]-triaconta-1(29),2,4,15,17,20,22,25,27-nonaen-8-one] | B (a value above 5 °C and less than or equal to 10 °C is marked “B”) | A (a TECC value less than 12 is marked “A”)
Cc1cn2nc1-c1cc(ccc1F)Oc1c(F)cc3[nH]ccc3c1CCS(=O)(=O)CC(C)(C)COCC2c1cccc(CCC(=O)O)c1 (single isomer, unassigned) [Compound 84B, 3-[3-(22,28-difluoro-3,10,10-trimethyl-12,12-dioxo-8,24-dioxa-12lambda6-thia-5,19,30-triazapentacyclo[23.3.1.12,5.015,23.016,20]triaconta-1(29),2(30),3,15,17,20,22,25,27-nonaen-6-yl)phenyl]propanoic acid] | A (an ΔTagg value less than or equal to 5 °C is marked “A”) | A (a TECC value less than 12 is marked “A”)
Cc1cnn2c1-c1cc(ccc1F)Oc1c(F)cc3[nH]ccc3c1CCS(=O)(=O)CC(C)(C)COCC2c1cccc(CCC(=O)O)c1 (single isomer, unassigned) [Compound 85, 3-[3-(23,29-difluoro-3,11,11-trimethyl-13,13-dioxo-9,25-dioxa-13λ6-thia-5,6,20-triazapentacyclo[24.3.1.02,6.016,24.017,21]triaconta-1(30),2,4,16,18,21,23,26,28-nonaen-7-yl)phenyl]propanoic Acid] | A (an ΔTagg value less than or equal to 5 °C is marked “A”) | A (a TECC value less than 12 is marked “A”)
CC1(C)CS(=O)(=O)CCc2c(c(F)cc3[nH]ccc23)Oc2ccc(F)c(c2)-c2ccn(n2)C(c2cccc(CCC(=O)O)c2)CCO1 (single isomer, unassigned) [Compound 87A, 3-[3-(22,28-difluoro-10,10-dimethyl-12,12-dioxo-9,24-dioxa-12lambda6-thia-5,19,30-triazapentacyclo[23.3.1.12,5.015,23.016,20]-triaconta-1(29),2(30),3,15,17,20,22,25,27-nonaen-6-yl)phenyl]propanoic acid] | B (a value above 5 °C and less than or equal to 10 °C is marked “B”) | A (a TECC value less than 12 is marked “A”)
CC1(C)CS(=O)(=O)CCc2c(c(F)cc3[nH]ccc23)Oc2ccc(F)c(c2)-c2ccn(n2)C(c2cccc(CCC(=O)O)c2)CCO1 (single isomer, unassigned) [Compound 87B, 3-[3-(22,28-difluoro-10,10-dimethyl-12,12-dioxo-9,24-dioxa-12lambda6-thia-5,19,30-triazapentacyclo[23.3.1.12,5.015,23.016,20]-triaconta-1(29),2(30),3,15,17,20,22,25,27-nonaen-6-yl)phenyl]propanoic acid] | C (a value greater than 10 °C and less than or equal to 25 °C is marked “C”) | A (a TECC value less than 12 is marked “A”)
